Assay results taken from patent US20160158200A1, “Combinations of Hepatitis C Virus Inhibitors” (priority 2013, published 2016).

Test system: HCV genotype-1a variant with glutamine 30 changed to glutamate in the NS5A protein
Type: cell-based
Conditions: test compound titrated with BMS-790052 fixed at 200 nM; genotype 1a Q30E replicon
Procedure, shortened: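 Synergy was assessed by combining several fixed amounts of an NS5A-targeting compound with a titration of the second compound of interest.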

Row | SMILES | Fold-Synergistic 1a (Q30E) [fold]
1 | CC(C)(C)[C@H](NC(=O)CC12CC3CC(CC(C3)C1)C2)c1nc(-c2ccc(-c3ccc(-c4c[nH]c([C@@H](NC(=O)CC56CC7CC(CC(C7)C5)C6)C(C)(C)C)n4)cc3)cc2)c[nH]1 [Compound N-63] | >100
2 | CC(C)[C@H](NC(=O)C1(C)CC1)c1ncc(-c2ccc(-c3ccc(-c4cnc([C@@H](NC(=O)C5(C)CC5)C(C)C)[nH]4)cc3)cc2)[nH]1 [Compound S-1] | >100
3 | CC(C)(C)[C@H](NC(=O)C(=O)N1CCCCC1)c1nc(-c2ccc(-c3ccc(-c4c[nH]c([C@@H](NC(=O)C(=O)N5CCCCC5)C(C)(C)C)n4)cc3)cc2)c[nH]1 [Compound W-11] | >100
4 | CC(C)(C)OC(=O)N1CCC(F)(F)C[C@H]1C(=O)N[C@H](c1nc(-c2ccc(-c3ccc(-c4c[nH]c([C@@H](NC(=O)[C@@H]5CC(F)(F)CCN5C(=O)OC(C)(C)C)C(C)(C)C)n4)cc3)cc2)c[nH]1)C(C)(C)C [Compound L-21] | >100
5 | CN(C)C(=O)C(=O)N[C@H](c1nc(-c2ccc(-c3ccc(-c4c[nH]c([C@@H](NC(=O)C(=O)N(C)C)C(C)(C)C)n4)cc3)cc2)c[nH]1)C(C)(C)C [Compound W-10] | >100
6 | CC(C)[C@H](NC(=O)c1ccc(Cl)s1)c1ncc(-c2ccc(-c3ccc(-c4cnc([C@@H](NC(=O)c5ccc(Cl)s5)C(C)C)[nH]4)cc3)cc2)[nH]1 [Compound P-91] | >100
7 | CC(C)[C@H](NC(=O)C1CCC(F)(F)CC1)c1nc2ccc(C#CC#Cc3ccc4nc([C@@H](NC(=O)C5CCC(F)(F)CC5)C(C)C)[nH]c4c3)cc2[nH]1 [Compound B52] | >100
8 | CC(C)(C)[C@H](NC(=O)Cc1ccccc1F)c1nc(-c2ccc(-c3ccc(-c4c[nH]c([C@@H](NC(=O)Cc5ccccc5F)C(C)(C)C)n4)cc3)cc2)c[nH]1 [Compound N-48] | >100
9 | CC(C)[C@H](NC(=O)C(=O)C1CC2CCC(C1)C2(F)F)c1ncc(-c2ccc(-c3ccc(-c4cnc([C@@H](NC(=O)C(=O)C5CC6CCC(C5)C6(F)F)C(C)C)[nH]4)cc3)cc2)[nH]1 (stereo partly drawn) [Compound P-129] | >100
10 | O=C(c1nccc2c(Cl)cccc12)N1CCC[C@H]1c1ncc(-c2ccc(-c3ccc(-c4cnc([C@@H]5CCCN5C(=O)c5nccc6c(Cl)cccc56)[nH]4)cc3)cc2)[nH]1 [Compound S-206] | >100
11 | CN(C)C(=N[C@H](c1ncc(-c2ccc(-c3ccc(-c4cnc([C@@H](NC(=O)C(C)(C)C5=CCCCC5)C(C)(C)C)[nH]4)cc3)cc2)[nH]1)C(C)(C)C)N(C)C [Compound B87] | >100
12 | CC(C)(C)[C@H](NC(=O)C1CCC(F)(F)CC1)c1ncc(-c2ccc(-c3ccc4c(ccc5nc([C@@H](NC(=O)C6CCC(F)(F)CC6)C(C)(C)C)[nH]c54)c3)cc2)[nH]1 [Compound B17] | >100
13 | CC(C)(C)[C@H](NC(=O)C1(C(=O)N2CCC(F)(F)CC2)CC1)c1nc(-c2ccc(-c3ccc(-c4c[nH]c([C@@H](NC(=O)C5(C(=O)N6CCC(F)(F)CC6)CC5)C(C)(C)C)n4)cc3)cc2)c[nH]1 [Compound P-148] | >100
14 | CC(C)(C)C(NC(=O)C(O)C1CCCCC1)c1nc(-c2ccc(-c3ccc(-c4c[nH]c(C(NC(=O)C(O)C5CCCCC5)C(C)(C)C)n4)cc3)cc2)c[nH]1 [Compound L-74] | >100
15 | CN(C)S(=O)(=O)N[C@H](c1nc(-c2ccc(-c3ccc(-c4c[nH]c([C@@H](NS(=O)(=O)N(C)C)C(C)(C)C)n4)cc3)cc2)c[nH]1)C(C)(C)C [Compound L-116] | >100
16 | CC(C)C(NC(=O)C(C)(C)C(O)C1CC1)c1nc(-c2ccc(-c3ccc(-c4c[nH]c(C(NC(=O)C(C)(C)C(O)C5CC5)C(C)C)n4)cc3)cc2)c[nH]1 (mixture of isomers) [Compound N-149] | >100
17 | CC(C)[C@H](NC(=O)OCC(C)(C)C)c1ncc(-c2ccc(-c3ccc(-c4cnc([C@@H](NC(=O)OCC(C)(C)C)C(C)C)[nH]4)cc3)cc2)[nH]1 [Compound S-210] | >100
18 | CC(C)OC(=O)N1CCC[C@H]1c1ncc(-c2ccc(-c3ccc(-c4cnc([C@@H]5CCCN5C(=O)OC(C)C)[nH]4)cc3)cc2)[nH]1 [Compound S-220] | >10
19 | CC1(C(NC(=O)C2(O)CCC(F)(F)CC2)c2nc(-c3ccc(-c4ccc(-c5c[nH]c(C(NC(=O)C6(O)CCC(F)(F)CC6)C6(C)CC6)n5)cc4)cc3)c[nH]2)CC1.O=C(O)C(F)(F)F.O=C(O)C(F)(F)F (stereo not drawn) [Compound P-151] | >100
20 | CC(C)CC(=O)N[C@@H](c1nc(-c2ccc(-c3ccc(-c4c[nH]c([C@H](NC(=O)CC(C)C)C(C)C)n4)cc3)cc2)c[nH]1)C(C)C [Compound P-54.1] | >100
21 | CC(C)C(NC(=O)C(=O)N(CC(F)(F)F)C(C)C)c1nc(-c2ccc(-c3ccc(-c4c[nH]c(C(NC(=O)C(=O)N(CC(F)(F)F)C(C)C)C(C)C)n4)cc3)cc2)c[nH]1 (stereo not drawn) [Compound W-65] | >100
22 | COC(=O)N(C)C1(C(=O)N[C@H](c2ncc(C#Cc3ccc4cc(-c5cnc([C@@H](NC(=O)C6(N(C)C(=O)OC)CC6)C(C)(C)C)[nH]5)ccc4c3)[nH]2)C(C)(C)C)CC1 [Compound B5] | >100
23 | CC1(C(=O)N2CCC[C@H]2c2ncc(-c3ccc(-c4ccc(-c5cnc([C@@H]6CCCN6C(=O)C6(C)CC6)[nH]5)cc4)cc3)[nH]2)CC1 [Compound S-160] | <10
24 | CC(C)(C)C(NC(=O)C(C)(O)C(F)(F)F)c1nc(-c2ccc(-c3ccc(-c4c[nH]c(C(NC(=O)C(C)(O)C(F)(F)F)C(C)(C)C)n4)cc3)cc2)c[nH]1.O=C(O)C(F)(F)F.O=C(O)C(F)(F)F (single isomer, unassigned) [Compound L-66b] | >100
25 | COc1cccc(CC(=O)N[C@H](c2ncc(-c3ccc(-c4ccc(-c5cnc([C@@H](NC(=O)Cc6cccc(OC)c6)C(C)C)[nH]5)cc4)cc3)[nH]2)C(C)C)c1 [Compound S-40] | >100
26 | CC(C)(C)[C@H](NC(=O)C(=O)c1cccs1)c1nc(-c2ccc(-c3ccc(-c4c[nH]c([C@@H](NC(=O)C(=O)c5cccs5)C(C)(C)C)n4)cc3)cc2)c[nH]1 [Compound W-19] | >100
27 | CC1(C)CCCC(C)(C(=O)N[C@H](c2nc(-c3ccc(-c4ccc(-c5c[nH]c([C@@H](NC(=O)C6(C)CCCC(C)(C)O6)C(C)(C)C)n5)cc4)cc3)c[nH]2)C(C)(C)C)O1 (single isomer, unassigned) [Compound W-168] | >10
28 | CC(C)[C@H](NC(=O)c1cccc(C#N)c1)c1ncc(-c2ccc(-c3ccc(-c4cnc([C@@H](NC(=O)c5cccc(C#N)c5)C(C)C)[nH]4)cc3)cc2)[nH]1 [Compound S-72] | >100
29 | CC(C)[C@H](NC(=O)C(C)(C)F)c1ncc(-c2ccc3c(c2)CCc2cc(-c4cnc([C@@H](NC(=O)C(C)(C)F)C(C)C)[nH]4)ccc2-3)[nH]1.O=C(O)C(F)(F)F [Compound N-75] | >100
30 | CC1CN(C(C)(C)C(=O)N2CCC(C)(C)C2c2nc(-c3ccc(-c4ccc(-c5c[nH]c(C6N(C(=O)C(C)(C)N7CC(C)OC(C)C7)CCC6(C)C)n5)cc4)cc3)c[nH]2)CC(C)O1 (stereo not drawn) [Compound W-228] | <10
